Article PMC5312321, “A general strategy to optimize immunogenicity of HLA-B*0702 restricted cryptic peptides from tumor associated antigens: Design of universal neo-antigen like tumor vaccines for HLA-B*0702 positive patients” (Oncotarget, 2016)
Entries after “also recorded” stand apart in the source; their conditions may differ. Marks after values point to notes of the source that are not given here.

Assays:
HLA-B*0702 = target: T1, HLA-B*0702 (Homo sapiens, UniProt P01889); test: Measurement of peptide relative affinity to HLA-B*0702 (surface expression on T2-B7 cells); type: cell-based; details: for RA (Relative Affinity): 37°C 16 hours, peptide 100 μM to 0.1 μM, ME-1 mAb staining, RA = concentration inducing 20% of HLA-B*0702 expression / that of reference R10V, mean ± SD, at least three experiments, ≥ 10 = 10 or not measurable; for binding to / affinity for HLA-B*0702 (in words): relative to reference peptide R10V
T1 construct: expressed in transfected cells; host or cells: human T2-B7 cells (T2 transfected with HLA-B*0702)
Procedure: The protocol used has been described previously. Briefly, T2-B7 cells were incubated at 37°C for 16 hours with peptides concentrations ranging from 100 μM to 0.1 μM (100 μM, 10 μM, 1 μM and 0.1μM), and then stained with ME-1 monoclonal antibody (mAb) to quantify the surface expression of HLA-B*0702. For each peptide concentration, the HLA-B*0702 specific staining was calculated as the percentage of staining obtained with 100 μM of the reference peptide CMV265–274 (R10V; […], SEQ ID NO: 9). The relative affinity (RA) was determined as: RA = (Concentration of each peptide that induces 20% of HLA-B*0702-expression/Concentration of the reference R10V peptide that induces 20% of HLA-B*0702 expression). In case of non-binders peptide, RA is not evaluable since the 20% of HLA-B*0702 expression is not reach even with the highest concentration of peptide.

[1] = system: HLA-B*0702 transgenic mice; test: Vaccination of HLA-B*0702 transgenic mice; specific CTLs detected by cytotoxicity or IFNγ ELISPOT; type: in vivo, mouse; details: for immunogenicity in HLA-B*0702 transgenic mice (in words): specific CTL induction after vaccination, cytotoxicity (ratio 30/1) or IFNγ ELISpot; for Immunogenicity (number of responding mice/number of vaccinated mice): native peptides, 100 μg peptide in IFA s.c. with HBVcore128 helper epitope, twice at two weeks interval
Procedure: The HLA-B7 H-2 class-I knockout mice were previously described.
Mice were injected subcutaneously with 100 μg of peptide emulsified in Incomplete Freund's Adjuvant (IFA) in the presence of 150 μg of the I-A^b restricted HBVcore128 T helper epitope ([…]) twice at two weeks interval.
A particular protocol was applied for MAGE-A 274L9, with two injections of this peptide at two weeks interval and 15 days later one injection with each one of the native peptide.
On day 6 of culture the bulk responder populations were tested for specific cytotoxicity. […] Percentage of specific lysis was determined as: % Lysis = (Experimental Release-Spontaneous Release) / (Maximal Release-Spontaneous Release) × 100. Spontaneous release is obtained using medium only, maximum release with HCl 0.1 M.
Seven days after the last vaccination, spleens were removed and T cells were isolated by Ficoll centrifugation and tested ex vivo for the recognition of 10 μM of either the native or optimized peptide. IFNγ producing T cells were quantified by ELISpot using the Diaclone Kit Murine IFNγ ELISpot (Besançon, France) according to manufacturer's recommendations. 250 000 spleen T cells were distributed per well and tested for the recognition of 10 μM of either the native or optimized peptide. Positive control was Concanavalin A and negative control was medium alone. All conditions were tested in sixplicates.

What does the source list for “APLSLGLET [Hsp70_397, Hsp70 derived native cryptic peptide]”?
RA (Relative Affinity) (HLA-B*0702): ≥ 10; binding to / affinity for HLA-B*0702 (in words) (HLA-B*0702): low affinity; immunogenicity in HLA-B*0702 transgenic mice (in words) [1]: only the high affinity TERT4 was immunogenic

“APRCRAVRSL [TERT4, TERT derived peptide with complete consensus motif A1P2R3L9, control, dominant peptide]” was tested. Which “RA (Relative Affinity)” value (HLA-B*0702; SD) did it give?
Its value is 0.74 ± 0.12.

What about the “binding to / affinity for HLA-B*0702 (in words)” value (“binding to / affinity” below) (HLA-B*0702) of the same sequence?
The value was “strongly bind to HLA-B*0702; also recorded: strong affinity”.

What about the “immunogenicity in HLA-B*0702 transgenic mice (in words)” value (“immunogenicity … (in words)” below) [1] of the same sequence?
The value was “immunogenic”.

What does the source list for “APRGVPQIEV [HSP70_466, HSP70 derived native peptide]”?
Immunogenicity (number of responding mice/number of vaccinated mice) [1]: 3/3; immunogenicity in HLA-B*0702 transgenic mice (in words) [1]: immunogenic

With “APRSLGLEL [Hsp70_397 R3L9, optimized Hsp70_397, arginine at position 3 and leucine at C-terminal position]” as the sequence, how does the “RA (Relative Affinity)” value (HLA-B*0702; SD) read?
Its value is 1 ± 0.6.

And the “binding to / affinity” value (HLA-B*0702)?
The value was “high HLA-B*0702 affinity”.

How did the “Immunogenicity (number of responding mice/number of vaccinated mice)” value [1] turn out when “APRSPLAPS [Her2/neu1069, Her2/neu derived native peptide]” was run?
Its value is 5/7.

What about the “immunogenicity … (in words)” value [1] of the same sequence?
The value was “immunogenic”.

“APRTKAEML [MAGE-A1_121 A1R3, optimized MAGE-A1_121, alanine at position 1 and arginine at position 3]” was tested. Which “RA (Relative Affinity)” value (HLA-B*0702; SD) did it give?
Its value is 2.36 ± 0.28.

What about the “binding to / affinity” value (HLA-B*0702) of the same sequence?
The value was “high HLA-B*0702 affinity”.

How did the “RA (Relative Affinity)” value (HLA-B*0702) turn out when “APVTKAEML [MAGE-A1_121 A1, MAGE-A1_121 with alanine at position 1]” was run?
Its value is at least 10.

And the “binding to / affinity” value (HLA-B*0702)?
Its value is “fail to bind to HLA-B*0702 with high affinity”.

What does the source list for “DPRRLVQLL [TERT444, TERT derived native cryptic peptide]”?
RA (Relative Affinity) (HLA-B*0702): ≥ 10; binding to / affinity for HLA-B*0702 (in words) (HLA-B*0702): low affinity; immunogenicity in HLA-B*0702 transgenic mice (in words) [1]: only the high affinity TERT4 was immunogenic; also recorded: non-immunogenic

How did the “RA (Relative Affinity)” value (HLA-B*0702) turn out when “EPFTKAEML [MAGE-A2_121, MAGE-A derived native cryptic peptide]” was run?
Its value is at least 10.

What about the “binding to / affinity” value (HLA-B*0702) of the same sequence?
Its value is “low affinity”.

“EPITKAEIL [MAGE-A4_121, MAGE-A derived native cryptic peptide]” was tested. Which “RA (Relative Affinity)” value (HLA-B*0702) did it give?
Its value is at least 10.

What about the “binding to / affinity” value (HLA-B*0702) of the same sequence?
Its value is “low affinity”.

What does the source list for “EPVTKAEML [MAGE-A1_121, MAGE-A derived native cryptic peptide]”?
RA (Relative Affinity) (HLA-B*0702): ≥ 10; binding to / affinity for HLA-B*0702 (in words) (HLA-B*0702): low affinity

With “GPKHSDCLA [Her2/neu246, Her2/neu derived native peptide]” as the sequence, how does the “Immunogenicity (number of responding mice/number of vaccinated mice)” value [1] read?
Its value is 0/9.

What about the “immunogenicity … (in words)” value [1] of the same sequence?
The value was “non immunogenic”.

For “GPRALAETS [MAGE-A1_267, native peptide shared by MAGE-A1 and MAGE-A4]”, which “Immunogenicity (number of responding mice/number of vaccinated mice)” value [1] is on record?
The value was 0/3.

What about the “immunogenicity … (in words)” value [1] of the same sequence?
Its value is “non immunogenic”.

With “GPRALIETS [MAGE-A2_274, native peptide shared by MAGE-A2 and MAGE-A6]” as the sequence, how does the “Immunogenicity (number of responding mice/number of vaccinated mice)” value [1] read?
Its value is 0/3.

What about the “immunogenicity … (in words)” value [1] of the same sequence?
Its value is “non immunogenic”.

For “GPRALVETS [MAGE-A3_274, native peptide shared by MAGE-A3 and MAGE-A12]”, which “Immunogenicity (number of responding mice/number of vaccinated mice)” value [1] is on record?
The value was 2/3*.

And the “immunogenicity … (in words)” value [1]?
Its value is “very weak immunogenicity; also recorded: very weakly immunogenic”.

Which “Immunogenicity (number of responding mice/number of vaccinated mice)” value [1] does the source give for “SPKANKEIL [Her2/neu760, Her2/neu derived native peptide]” here?
The value was 4/9.

And the “immunogenicity … (in words)” value [1]?
The value was “immunogenic”.

How did the “Immunogenicity (number of responding mice/number of vaccinated mice)” value [1] turn out when “SPREGPLPA [Her2/neu1151, Her2/neu derived native peptide]” was run?
The value was 1/3.

And the “immunogenicity … (in words)” value ([1]; listed as HER2/neu1151)?
Its value is “immunogenic”.

What about the “immunogenicity … (in words)” value ([1]; listed as HER-2/neu1151) of the same sequence?
The value was “very weakly immunogenic”.

With “SPRLQLSND [CEA188, CEA derived native peptide]” as the sequence, how does the “Immunogenicity (number of responding mice/number of vaccinated mice)” value [1] read?
The value was 0/3.

And the “immunogenicity … (in words)” value [1]?
Its value is “non immunogenic”.
